Data taken from patent US20020022826A1, “Burst electrode” (priority 2000, published 2002).

Conditions: bare metal electrodes, nitrogen atmosphere
Text: Using stainless steel electrodes in aqueous NaPSS electrolyte, conditions were developed for the reproducible synthesis, loading, and release of bioactive cations from PPy/PSS films. After PPy/PSS film preparation, the polymer-modified electrodes were removed from the electrolyte, washed with water, and their redox properties studied by cyclic voltammetry (CV).

## NCCc1ccc(O)c(O)c1 [Dopamine, dopamine]
  potential at which dopamine oxidizes: +0.6 V vs. Ag/AgCl
